Results as given in patent US20250109216A1, “COMPOSITIONS AND METHODS FOR CROSSLINKING FC RECEPTORS” (The University of North Carolina at Chapel Hill, priority 2016, published 2025).
“Also recorded” adds a separate entry of the source.

Legend:
Type in all cases: cell-based, mice
B6 MFs = assay: Recycling of IgG-ICs in B6 MFs treated with concanamycin A
Description: BMMφs were incubated (37° C., 5% CO2) with 40 μL Alexa Fluor® 488-labeled IgG-ICs in R10 media (as above). To quantify surface bound ICs at 0 hours, phagocytic uptake was impaired by culturing with IgG-ICs on ice for 2 hours. This was sufficient to allow the ICs to bind to the surface of the cell but not be phagocytosed. For all other time points, cells were incubated (37° C., 5% CO2) for 2 hours, then media was replaced to remove all unbound ICs. At indicated time points, cells were blocked in 2.4G2 for 30 min on ice in FACS media, washed, and split into 2 samples. One sample was incubated with an anti-Alexa Fluor® 488 antibody (quenches Alexa Fluor® 488 fluorescence), while the other sample was left in FACS media for 30 min on ice. Both samples were washed and fixed with 2% paraformaldehyde and incubated at 4° C. for 15 min. Surface bound IgG-ICs were calculated by subtracting the MFI of the quenched sample (intracellular IgG-ICs) from the MFI of the unquenched sample (total IgG-ICs). Values were normalized to B6 0 hr.

MRL/lpr Mφs [1] = assay: Recycling of IgG-IC flow cytometry (surface bound IgG-ICs); conditions: pre-treated with drugs 2 hr, surface IgG-ICs at 72 hrs
Description: (§1) FIGS. 6A-6B. […] (6A). BMMφs from B6 and MRL/lpr mice were stimulated with IgG-ICs±TGX-221 (p110β), IC87114 (p110δ), or Torin1 (mTorC1/C2), and ratiometric flow cytometry was used to quantify the relative phagosomal pH. (6B). Cells were pre-treated with drugs (for 2 hr) and given IgG-ICs. IgG-ICs were removed after 2 hr. Cells remained on drug for the duration of the experiment. At 72 hrs, levels of surface bound IgG-ICs were analyzed by flow cytometry. All values are normalized to B6 untreated. n=3-7.
Cells (0.25×10^6) were rested in R10 media for 1 hr at 37° C. prior to the addition of any reagents. IgG-ICs were added, incubated for given duration, and removed at each time points. […]
BMMφs were incubated (37° C., 5% CO2) with 40 μL Alexa Fluor® 488-labeled IgG-ICs in R10 media (as above). To quantify surface bound ICs at 0 hours, phagocytic uptake was impaired by culturing with IgG-ICs on ice for 2 hours. […] One sample was incubated with an anti-Alexa Fluor® 488 antibody (quenches Alexa Fluor® 488 fluorescence), while the other sample was left in FACS media for 30 min on ice. […] Surface bound IgG-ICs were calculated by subtracting the MFI of the quenched sample (intracellular IgG-ICs) from the MFI of the unquenched sample (total IgG-ICs). […]

MRL/lpr Mφs [2] = assay: Lysosome acidification after IgG-IC stimulation, ratiometric flow cytometry (relative phagosomal pH); conditions: MRL/lpr Mφs/BMMFs stimulated with IgG-ICs; inhibitor added 2 hours prior and left on
Description: as §1
FIGS. 9A-9C. […] (9A). BMMφs (left panel) or splenic CD11b+ myeloid cells from B6 and MRL/lpr (right panel) were stimulated with IgG-ICs±SM-PEG (1, 2) (5 μg/mL) or control SM-PEG […] (5 μg/mL), and ratiometric flow cytometry was used to quantify the relative phagosomal pH. For internal control, cells were treated with concanamycin A (CMA) 2 hrs prior to IgG-ICs treatment (T0+CMA) to inhibit lysosomal pH change. 2-7 mice, >2 experiments. (9B). BMMφs (left panel) or splenic CD11b+ myeloid cells (right panel) were stimulated with SM-PEG (1, 2) or control SM-PEG (2, 1), or left unstimulated for 30 min or 60 min. At each time points, fixed cells were analyzed for surface bound nucleosomes. 2 mice, 2 experiments. (9C). BMMφs were stimulated with IgG-ICs±SM-PEG(1, 2) (5 μg/mL) for 1 hr, then pAKT (Ser/Thr) and pSHIP1 levels were assessed by flow cytometry. Phospho-proteins were normalized to isotype controls and the levels of total protein. 4 mice, 4 experiments.
The acidotropic dye LysoSensor™ Yellow/Blue can be used to quantify the pH or lysosomes using ratiometric imaging. […] For this adaptation, we loaded cells with an acidotropic dye and concurrently analyzed cells by microscopy (with pH standards) and flow cytometry. […]
Cells were incubated (37° C., 5% CO2) for 2 hours prior to the addition of 40 μL of IgG-ICs in R10 media (as above). […] At each time points, LysoSensor™ (2 mg/mL) was added and incubated for 15 min, then, analyzed by flow cytometry. […] Relative pH was quantified by ratioing the MFIs from the emission channels (450/20 nm, 585/42 nm) (normalized to concanamycin A control). […]

MRL/lpr BMMφ = assay: mTOR localization by confocal imaging; conditions: MRL/lpr BMMφs; Torin1 250 ng/mL for 2 hrs
Description: FIGS. 5A-5B. Localization of mTOR is defective in MRL/lpr BMMφ. (5A-5B). Unstimulated BMMφs cultured±Torin1 (250 ng/mL) for 2 hrs were examined for mTOR localization with CD11b by confocal imaging. Colocalization of mTOR to membrane (CD11b) is quantitated by mander's coefficient (5A). Total cellular mTOR levels were quantitated using ImageJ software (5B); 3 exp, 2-3 mice, 10-29 cells.
BMMφs were cultured with IgG-ICs in R10 media at 37° C. For measuring lipid rafts fluorescently labeled CTx was added to the culture 30 min prior to fixation. For the nuclear stain, hoechst was added 15 min prior to fixation. Mφs were fixed with 2% paraformaldehyde, then incubated at 4° C. for 15 min. Cells were blocked in 2.4G2 for 30 min at 4° C. in FACs media (PBS with 2% FBS, 0.02% NaN3), washed, and stained with primary and corresponding secondary antibodies in permeabilization buffer (PBS with 0.05% Saponin and 0.5% BSA) for 30 min at 4° C. Mφs were imaged in FACs media or resuspended in FluorSave™ and imaged. […] Data were analyzed using ImageJ. Colocalization was measured by calculating the Mander's coefficient (colocalized pixels/total fluorescent pixels) in all the cells imaged.

SMILES | recycling of IgG-ICs (B6 MFs) | recycling of IgG-ICs (surface bound IgG-ICs) (MRL/lpr Mφs [1]) | lysosome acidification (MRL/lpr Mφs [2]) | mTOR localization (MRL/lpr BMMφ)
C/C=C/[C@H]1O[C@@](O)([C@@H](C)[C@H](O)[C@H](C)[C@H]2OC(=O)/C(OC)=C/C(C)=C/[C@@H](C)[C@@H](O)[C@@H](CC)[C@@H](O)[C@H](C)C/C(C)=C/C=C/[C@@H]2OC)C[C@@H](O[C@H]2C[C@@H](O)[C@H](OC(N)=O)[C@@H](C)O2)[C@@H]1C [concanamycin A] | promotes the recycling of IgG-ICs |  |  | 
Cc1ccccc1-n1c(Cn2cnc3c(N)ncnc32)nc2cccc(C)c2c1=O [IC87114] |  | prevented the recycling of IgG-ICs | restored lysosome acidification to levels comparable to B6; also recorded: restored lysosomal acidification | 
Cc1cc(C(C)Nc2ccccc2)c2nc(N3CCOCC3)cc(=O)n2c1 (stereo not shown) [TGX-221] |  | prevented the recycling of IgG-ICs | restored lysosome acidification to levels comparable to B6; also recorded: restored lysosomal acidification | 
CCC(=O)N1CCN(c2ccc(-n3c(=O)ccc4cnc5ccc(-c6cnc7ccccc7c6)cc5c43)cc2C(F)(F)F)CC1 [Torin1] |  |  | restored lysosome acidification to levels comparable to B6; also recorded: restored lysosomal acidification | restored mTOR to a cytosolic location
